In paper PMC4767141, “Discovery of Potent, Orally Bioavailable, Small-Molecule Inhibitors of WNT Signaling from a Cell-Based Pathway Screen” (Journal of Medicinal Chemistry, 2015):

Key:
AURKB = target: T1, AURKB (Homo sapiens, UniProt Q96GD4); test: Millipore kinase panel; format: biochemical; settings: read-out: % Control
T1 construct: purchased Millipore KinaseProfiler (kinases); Cerep (receptors and ion channels)

δ2 (DOP) (h) = target: T2, δ2 (DOP) (h) (Homo sapiens, UniProt P41143); test: CEREP binding panel; settings: 10 μM, agonist radioligand
T2 construct: purchased Millipore KinaseProfiler (kinases); Cerep (receptors and ion channels)

SRC = target: T3, SRC (Homo sapiens, UniProt P12931); test: Millipore kinase panel; format: biochemical; settings: read-out: % Control
T3 construct: purchased Millipore KinaseProfiler (kinases); Cerep (receptors and ion channels)

EEF-2K = target: T4, EEF-2K (Homo sapiens, UniProt O00418); test: Millipore kinase panel; format: biochemical; settings: read-out: % Control
T4 construct: purchased Millipore KinaseProfiler (kinases); Cerep (receptors and ion channels)

ASK1 = target: T5, ASK1 (Homo sapiens, UniProt Q99683); test: Millipore kinase panel; format: biochemical; settings: read-out: % Control
T5 construct: purchased Millipore KinaseProfiler (kinases); Cerep (receptors and ion channels)

5-HT2A (h) = target: T6, 5-HT2A (h) (Homo sapiens, UniProt P28223); test: CEREP binding panel; settings: antagonist radioligand, read-out: % Inhibition of Control Specific Binding
T6 construct: purchased Millipore KinaseProfiler (kinases); Cerep (receptors and ion channels)

MTOR = target: T7, MTOR (Homo sapiens, UniProt P42345); test: Millipore kinase panel; format: biochemical; settings: read-out: % Control
T7 construct: purchased Millipore KinaseProfiler (kinases); Cerep (receptors and ion channels)

MSK2 = target: T8, MSK2 (Homo sapiens, UniProt O75676); test: Millipore kinase panel; format: biochemical; settings: read-out: % Control
T8 construct: purchased Millipore KinaseProfiler (kinases); Cerep (receptors and ion channels)

JNK1ALPHA1 = target: T9, JNK1ALPHA1 (Homo sapiens, UniProt P45983); test: Millipore kinase panel; format: biochemical; settings: read-out: % Control
T9 construct: purchased Millipore KinaseProfiler (kinases); Cerep (receptors and ion channels)

β1 (h) = target: T10, β1 (h) (Homo sapiens, UniProt P08588); test: CEREP binding panel; settings: agonist radioligand, read-out: % Inhibition of Control Specific Binding
T10 construct: purchased Millipore KinaseProfiler (kinases); Cerep (receptors and ion channels)

TRKA = target: T11, TRKA (Homo sapiens, UniProt P04629); test: Millipore kinase panel; format: biochemical; settings: read-out: % Control
T11 construct: purchased Millipore KinaseProfiler (kinases); Cerep (receptors and ion channels)

TEC ACTIVATED = target: T12, TEC ACTIVATED (Homo sapiens, UniProt P42680); test: Millipore kinase panel; format: biochemical; settings: read-out: % Control
T12 construct: purchased Millipore KinaseProfiler (kinases); Cerep (receptors and ion channels)

A3 (h) = target: T13, A3 (h) (Homo sapiens, UniProt P0DMS8); test: CEREP binding panel; settings: agonist radioligand, read-out: % Inhibition of Control Specific Binding
T13 construct: purchased Millipore KinaseProfiler (kinases); Cerep (receptors and ion channels)
T13 sequence (P0DMS8 whole entry): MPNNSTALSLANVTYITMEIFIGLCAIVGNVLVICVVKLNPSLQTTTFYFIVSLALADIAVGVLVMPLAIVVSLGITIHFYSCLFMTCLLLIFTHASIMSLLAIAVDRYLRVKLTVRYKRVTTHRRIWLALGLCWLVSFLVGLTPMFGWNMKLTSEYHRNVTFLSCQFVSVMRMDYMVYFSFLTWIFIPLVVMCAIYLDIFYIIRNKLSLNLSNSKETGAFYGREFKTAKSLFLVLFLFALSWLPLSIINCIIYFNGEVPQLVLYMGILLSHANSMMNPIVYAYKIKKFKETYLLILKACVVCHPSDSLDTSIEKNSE

FLT3 = target: T14, FLT3 (Homo sapiens, UniProt P36888); test: Millipore kinase panel; format: biochemical; settings: read-out: % Control
T14 construct: purchased Millipore KinaseProfiler (kinases); Cerep (receptors and ion channels)

VPAC1 (VIP1) (h) = target: T15, VPAC1 (VIP1) (h) (Homo sapiens, UniProt P32241); test: CEREP binding panel; settings: agonist radioligand, read-out: % Inhibition of Control Specific Binding
T15 construct: purchased Millipore KinaseProfiler (kinases); Cerep (receptors and ion channels)

PLK1 = target: T16, PLK1 (Homo sapiens, UniProt P53350); test: Millipore kinase panel; format: biochemical; settings: read-out: % Control
T16 construct: purchased Millipore KinaseProfiler (kinases); Cerep (receptors and ion channels)
T16 sequence (P53350 whole entry): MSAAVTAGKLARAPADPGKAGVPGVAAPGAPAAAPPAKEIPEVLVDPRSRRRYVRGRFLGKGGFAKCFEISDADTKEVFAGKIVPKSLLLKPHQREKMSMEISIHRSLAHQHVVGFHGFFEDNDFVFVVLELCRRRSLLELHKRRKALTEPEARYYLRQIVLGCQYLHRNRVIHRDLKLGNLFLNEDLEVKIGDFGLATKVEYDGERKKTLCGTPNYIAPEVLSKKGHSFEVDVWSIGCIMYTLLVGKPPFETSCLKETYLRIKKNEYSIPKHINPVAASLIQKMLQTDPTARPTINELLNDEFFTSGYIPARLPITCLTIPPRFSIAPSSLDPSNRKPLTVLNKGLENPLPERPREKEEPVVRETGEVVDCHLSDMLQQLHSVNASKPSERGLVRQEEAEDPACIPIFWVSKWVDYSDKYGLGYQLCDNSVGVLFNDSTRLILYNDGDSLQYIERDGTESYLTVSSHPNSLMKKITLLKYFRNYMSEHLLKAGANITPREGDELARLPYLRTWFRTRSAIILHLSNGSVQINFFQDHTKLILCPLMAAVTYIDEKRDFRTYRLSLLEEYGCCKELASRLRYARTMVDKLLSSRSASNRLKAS

IRAK4 = target: T17, IRAK4 (Homo sapiens, UniProt Q9NWZ3); test: Millipore kinase panel; format: biochemical; settings: read-out: % Control
T17 construct: purchased Millipore KinaseProfiler (kinases); Cerep (receptors and ion channels)
T17 sequence (Q9NWZ3 whole entry): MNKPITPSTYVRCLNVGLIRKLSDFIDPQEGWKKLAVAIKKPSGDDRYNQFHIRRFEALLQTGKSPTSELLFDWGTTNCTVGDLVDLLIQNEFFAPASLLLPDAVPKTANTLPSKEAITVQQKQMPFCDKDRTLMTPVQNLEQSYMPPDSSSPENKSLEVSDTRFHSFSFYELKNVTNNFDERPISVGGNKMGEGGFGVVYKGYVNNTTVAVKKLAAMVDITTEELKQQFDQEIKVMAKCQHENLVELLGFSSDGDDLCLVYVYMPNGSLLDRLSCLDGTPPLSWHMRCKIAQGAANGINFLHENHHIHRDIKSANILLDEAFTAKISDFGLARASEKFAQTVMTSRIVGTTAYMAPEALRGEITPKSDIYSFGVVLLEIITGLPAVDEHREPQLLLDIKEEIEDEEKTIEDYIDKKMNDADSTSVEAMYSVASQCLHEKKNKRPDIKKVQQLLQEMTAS

PRAK = target: T18, PRAK (Homo sapiens, UniProt Q8IW41); test: Millipore kinase panel; format: biochemical; settings: read-out: % Control
T18 construct: purchased Millipore KinaseProfiler (kinases); Cerep (receptors and ion channels)

ALK4 = target: T19, ALK4 (Homo sapiens, UniProt P36896); test: Millipore kinase panel; format: biochemical; settings: read-out: % Control
T19 construct: purchased Millipore KinaseProfiler (kinases); Cerep (receptors and ion channels)

FYN = target: T20, FYN (Homo sapiens, UniProt P06241); test: Millipore kinase panel; format: biochemical; settings: read-out: % Control
T20 construct: purchased Millipore KinaseProfiler (kinases); Cerep (receptors and ion channels)

IKKALPHA = target: T21, IKKALPHA (Homo sapiens, UniProt O15111); test: Millipore kinase panel; format: biochemical; settings: read-out: % Control
T21 construct: purchased Millipore KinaseProfiler (kinases); Cerep (receptors and ion channels)

FER = target: T22, FER (Homo sapiens, UniProt P16591); test: Millipore kinase panel; format: biochemical; settings: read-out: % Control
T22 construct: purchased Millipore KinaseProfiler (kinases); Cerep (receptors and ion channels)

5-HT5a (h) = target: T23, 5-HT5a (h) (Homo sapiens, UniProt P47898); test: CEREP binding panel; settings: agonist radioligand, read-out: % Inhibition of Control Specific Binding
T23 construct: purchased Millipore KinaseProfiler (kinases); Cerep (receptors and ion channels)

κ (KOP) = target: T24, κ (KOP) (Rattus norvegicus, UniProt P34975); test: CEREP binding panel; settings: 10 μM, agonist radioligand
T24 construct: purchased Millipore KinaseProfiler (kinases); Cerep (receptors and ion channels)
T24 sequence (P34975 whole entry): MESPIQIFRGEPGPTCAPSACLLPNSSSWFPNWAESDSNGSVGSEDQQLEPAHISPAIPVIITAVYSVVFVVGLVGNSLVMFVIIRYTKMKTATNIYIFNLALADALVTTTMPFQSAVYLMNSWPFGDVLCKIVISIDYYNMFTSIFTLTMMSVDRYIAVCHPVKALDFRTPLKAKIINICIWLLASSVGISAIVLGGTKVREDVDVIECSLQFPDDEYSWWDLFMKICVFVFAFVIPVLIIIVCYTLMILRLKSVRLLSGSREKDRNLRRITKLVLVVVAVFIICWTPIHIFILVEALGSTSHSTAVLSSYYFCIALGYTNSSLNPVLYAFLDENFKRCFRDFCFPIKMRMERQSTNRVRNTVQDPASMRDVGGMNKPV

LKB1 = target: T25, LKB1 (Homo sapiens, UniProt Q15831); test: Millipore kinase panel; format: biochemical; settings: read-out: % Control
T25 construct: purchased Millipore KinaseProfiler (kinases); Cerep (receptors and ion channels)
T25 sequence (Q15831 whole entry): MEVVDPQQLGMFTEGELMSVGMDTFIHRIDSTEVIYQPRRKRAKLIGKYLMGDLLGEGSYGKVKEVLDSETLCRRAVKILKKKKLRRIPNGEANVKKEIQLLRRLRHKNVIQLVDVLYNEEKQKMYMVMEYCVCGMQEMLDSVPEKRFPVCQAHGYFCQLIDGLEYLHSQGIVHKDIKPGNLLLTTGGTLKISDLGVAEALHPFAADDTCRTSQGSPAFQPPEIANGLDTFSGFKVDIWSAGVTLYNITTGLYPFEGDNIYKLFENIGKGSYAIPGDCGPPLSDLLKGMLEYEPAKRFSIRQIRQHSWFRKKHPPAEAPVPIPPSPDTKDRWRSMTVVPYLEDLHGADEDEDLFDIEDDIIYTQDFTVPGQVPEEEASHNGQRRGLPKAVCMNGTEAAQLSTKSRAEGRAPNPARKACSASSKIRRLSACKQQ
T25 sequence (Q7RTN6 whole entry partner): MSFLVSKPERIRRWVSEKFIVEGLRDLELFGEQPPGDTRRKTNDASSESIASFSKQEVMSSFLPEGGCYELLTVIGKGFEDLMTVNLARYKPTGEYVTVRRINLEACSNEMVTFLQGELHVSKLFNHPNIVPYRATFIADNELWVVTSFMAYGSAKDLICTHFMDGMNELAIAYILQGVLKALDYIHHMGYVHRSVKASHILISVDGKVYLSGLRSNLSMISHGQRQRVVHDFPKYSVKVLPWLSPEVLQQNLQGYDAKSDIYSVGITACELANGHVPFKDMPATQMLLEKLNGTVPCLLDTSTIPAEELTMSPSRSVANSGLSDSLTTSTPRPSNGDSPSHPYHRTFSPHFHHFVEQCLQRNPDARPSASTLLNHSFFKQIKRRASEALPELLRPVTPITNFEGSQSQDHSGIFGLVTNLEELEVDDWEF
T25 sequence (Q9Y376 whole entry partner): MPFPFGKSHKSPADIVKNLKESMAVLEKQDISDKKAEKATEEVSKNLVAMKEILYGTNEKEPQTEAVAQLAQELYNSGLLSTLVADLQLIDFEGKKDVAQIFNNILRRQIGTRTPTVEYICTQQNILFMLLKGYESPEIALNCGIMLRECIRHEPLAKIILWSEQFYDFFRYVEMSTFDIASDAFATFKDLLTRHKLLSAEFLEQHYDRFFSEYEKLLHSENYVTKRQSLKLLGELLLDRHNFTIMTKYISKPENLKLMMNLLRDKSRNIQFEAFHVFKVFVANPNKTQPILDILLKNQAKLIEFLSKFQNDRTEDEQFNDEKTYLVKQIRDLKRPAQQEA

HASPIN = target: T26, HASPIN (Homo sapiens, UniProt Q8TF76); test: Millipore kinase panel; format: biochemical; settings: read-out: % Control
T26 construct: purchased Millipore KinaseProfiler (kinases); Cerep (receptors and ion channels)

PTK5 = target: T27, PTK5 (Homo sapiens, UniProt P42685); test: Millipore kinase panel; format: biochemical; settings: read-out: % Control
T27 construct: purchased Millipore KinaseProfiler (kinases); Cerep (receptors and ion channels)

RSK3 = target: T28, RSK3 (Homo sapiens, UniProt Q15349); test: Millipore kinase panel; format: biochemical; settings: read-out: % Control
T28 construct: purchased Millipore KinaseProfiler (kinases); Cerep (receptors and ion channels)

IGF-1R, ACTIVATED = target: T29, IGF-1R, ACTIVATED (Homo sapiens, UniProt P08069); test: Millipore kinase panel; format: biochemical; settings: read-out: % Control
T29 construct: purchased Millipore KinaseProfiler (kinases); Cerep (receptors and ion channels)

NTS1 (NT1) (h) = target: T30, NTS1 (NT1) (h) (Homo sapiens, UniProt P30989); test: CEREP binding panel; settings: agonist radioligand, read-out: % Inhibition of Control Specific Binding
T30 construct: purchased Millipore KinaseProfiler (kinases); Cerep (receptors and ion channels)

CXCR2 (IL-8B) (h) = target: T31, CXCR2 (IL-8B) (h) (Homo sapiens, UniProt P25025); test: CEREP binding panel; settings: agonist radioligand, read-out: % Inhibition of Control Specific Binding
T31 construct: purchased Millipore KinaseProfiler (kinases); Cerep (receptors and ion channels)

MNK2 = target: T32, MNK2 (Homo sapiens, UniProt Q9HBH9); test: Millipore kinase panel; format: biochemical; settings: read-out: % Control
T32 construct: purchased Millipore KinaseProfiler (kinases); Cerep (receptors and ion channels)

MKK4 = test: Millipore kinase panel; format: biochemical; settings: 1 μM, ATP at Km
PIM-1 = target: T33, PIM-1 (Homo sapiens, UniProt P11309); test: Millipore kinase panel; format: biochemical; settings: read-out: % Control
T33 construct: purchased Millipore KinaseProfiler (kinases); Cerep (receptors and ion channels)

LIMK1 = target: T34, LIMK1 (Homo sapiens, UniProt P53667); test: Millipore kinase panel; format: biochemical; settings: read-out: % Control
T34 construct: purchased Millipore KinaseProfiler (kinases); Cerep (receptors and ion channels)
T34 sequence (P53667 whole entry): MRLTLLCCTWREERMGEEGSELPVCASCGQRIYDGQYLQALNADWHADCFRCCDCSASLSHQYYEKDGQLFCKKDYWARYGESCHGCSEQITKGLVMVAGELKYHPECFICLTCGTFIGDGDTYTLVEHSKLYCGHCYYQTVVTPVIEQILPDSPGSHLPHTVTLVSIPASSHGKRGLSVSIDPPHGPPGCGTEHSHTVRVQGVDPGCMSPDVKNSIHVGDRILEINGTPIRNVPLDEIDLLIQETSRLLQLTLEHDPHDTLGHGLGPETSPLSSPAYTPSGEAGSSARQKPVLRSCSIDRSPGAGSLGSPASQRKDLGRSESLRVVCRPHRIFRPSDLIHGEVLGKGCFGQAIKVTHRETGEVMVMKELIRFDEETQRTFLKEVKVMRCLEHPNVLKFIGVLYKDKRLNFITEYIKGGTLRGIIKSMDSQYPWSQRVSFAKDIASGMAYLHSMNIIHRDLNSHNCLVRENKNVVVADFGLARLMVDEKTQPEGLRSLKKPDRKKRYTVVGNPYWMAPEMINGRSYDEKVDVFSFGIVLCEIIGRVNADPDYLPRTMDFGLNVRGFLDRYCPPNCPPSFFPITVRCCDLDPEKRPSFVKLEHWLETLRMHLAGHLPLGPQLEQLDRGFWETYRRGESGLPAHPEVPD

CDK3/CYCLINE = target: T35, CDK3/CYCLINE (Homo sapiens, UniProt Q00526); test: Millipore kinase panel; format: biochemical; settings: read-out: % Control
T35 construct: purchased Millipore KinaseProfiler (kinases); Cerep (receptors and ion channels)
T35 sequence (Q00526 whole entry): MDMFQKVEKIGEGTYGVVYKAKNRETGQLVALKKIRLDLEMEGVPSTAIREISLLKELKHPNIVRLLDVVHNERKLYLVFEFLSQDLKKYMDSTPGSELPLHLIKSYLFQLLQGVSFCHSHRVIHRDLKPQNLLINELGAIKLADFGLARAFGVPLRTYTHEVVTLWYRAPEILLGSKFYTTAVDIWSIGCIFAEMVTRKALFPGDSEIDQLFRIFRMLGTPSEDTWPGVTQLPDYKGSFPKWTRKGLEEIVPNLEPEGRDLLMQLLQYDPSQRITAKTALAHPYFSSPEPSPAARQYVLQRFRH
T35 sequence (P24864 whole entry partner): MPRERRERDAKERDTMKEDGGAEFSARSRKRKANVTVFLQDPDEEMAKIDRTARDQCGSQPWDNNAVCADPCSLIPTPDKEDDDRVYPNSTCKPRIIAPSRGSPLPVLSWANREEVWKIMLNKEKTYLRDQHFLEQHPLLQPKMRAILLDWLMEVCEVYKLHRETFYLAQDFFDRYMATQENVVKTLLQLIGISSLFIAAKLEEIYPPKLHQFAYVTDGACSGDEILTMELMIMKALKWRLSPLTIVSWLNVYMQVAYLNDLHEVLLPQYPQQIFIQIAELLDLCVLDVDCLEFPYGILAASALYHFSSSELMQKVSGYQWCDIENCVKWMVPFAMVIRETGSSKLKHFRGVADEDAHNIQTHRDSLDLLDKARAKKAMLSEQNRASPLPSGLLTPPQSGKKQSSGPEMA

AT1 (h) = target: T36, AT1 (h) (Homo sapiens, UniProt P30556); test: CEREP binding panel; settings: antagonist radioligand, read-out: % Inhibition of Control Specific Binding
T36 construct: purchased Millipore KinaseProfiler (kinases); Cerep (receptors and ion channels)

BMX = target: T37, BMX (Homo sapiens, UniProt P51813); test: Millipore kinase panel; format: biochemical; settings: read-out: % Control
T37 construct: purchased Millipore KinaseProfiler (kinases); Cerep (receptors and ion channels)

YES = target: T38, YES (Homo sapiens, UniProt P07947); test: Millipore kinase panel; format: biochemical; settings: read-out: % Control
T38 construct: purchased Millipore KinaseProfiler (kinases); Cerep (receptors and ion channels)

SGK2 = target: T39, SGK2 (Homo sapiens, UniProt Q9HBY8); test: Millipore kinase panel; format: biochemical; settings: read-out: % Control
T39 construct: purchased Millipore KinaseProfiler (kinases); Cerep (receptors and ion channels)

EPHB3 = target: T40, EPHB3 (Homo sapiens, UniProt P54753); test: Millipore kinase panel; format: biochemical; settings: read-out: % Control
T40 construct: purchased Millipore KinaseProfiler (kinases); Cerep (receptors and ion channels)

μ (MOP) (h) = target: T41, μ (MOP) (h) (Homo sapiens, UniProt P35372); test: CEREP binding panel; settings: 10 μM, agonist radioligand
T41 construct: purchased Millipore KinaseProfiler (kinases); Cerep (receptors and ion channels)
T41 sequence (P35372 whole entry): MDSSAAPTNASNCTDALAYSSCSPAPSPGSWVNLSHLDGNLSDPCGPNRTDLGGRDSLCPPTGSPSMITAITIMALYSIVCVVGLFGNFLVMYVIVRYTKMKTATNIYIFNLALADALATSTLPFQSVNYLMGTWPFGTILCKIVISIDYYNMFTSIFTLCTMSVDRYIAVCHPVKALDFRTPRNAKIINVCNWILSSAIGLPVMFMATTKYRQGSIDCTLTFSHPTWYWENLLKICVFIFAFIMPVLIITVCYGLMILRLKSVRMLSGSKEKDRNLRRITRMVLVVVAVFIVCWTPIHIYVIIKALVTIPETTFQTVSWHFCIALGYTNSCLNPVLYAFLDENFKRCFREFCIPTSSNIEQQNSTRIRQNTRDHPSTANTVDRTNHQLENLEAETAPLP

GABA (non-selective) = test: CEREP binding panel; settings: 10 μM, agonist radioligand

SMILES: Cn1cc(-c2ccc(-c3cncc(Cl)c3N3CCC4(CCNC4=O)CC3)cc2)cn1 [Compound 74, 8-(3-Chloro-5-(4-(1-methyl-1H-pyrazol-4-yl)phenyl)pyridin-4-yl)-2,8-diazaspiro[4.5]decan-1-one]
- remaining activity at 1 µM (AURKB): -8%
- % Inhibition of Control Specific Binding (δ2 (DOP) (h)): 22%
- remaining activity at 1 µM (SRC): -6%
- remaining activity at 1 µM (EEF-2K): 15%
- remaining activity at 1 µM (ASK1): -15%
- inhibition at 10 µM (5-HT2A (h)): 1%
- remaining activity at 1 µM (MTOR): 7%
- remaining activity at 1 µM (MSK2): -6%
- remaining activity at 1 µM (JNK1ALPHA1): -9%
- inhibition at 10 µM (β1 (h)): 5%
- remaining activity at 1 µM (TRKA): -7%
- remaining activity at 1 µM (TEC ACTIVATED): 14%
- inhibition at 10 µM (A3 (h)): 17%
- remaining activity at 1 µM (FLT3): -9%
- inhibition at 10 µM (VPAC1 (VIP1) (h)): 0%
- remaining activity at 1 µM (PLK1): -4%
- remaining activity at 1 µM (IRAK4): -3%
- remaining activity at 1 µM (PRAK): 13%
- remaining activity at 1 µM (ALK4): -12%
- remaining activity at 1 µM (FYN): 1%
- remaining activity at 1 µM (IKKALPHA): 4%
- remaining activity at 1 µM (FER): 11%
- inhibition at 10 µM (5-HT5a (h)): 1%
- % Inhibition of Control Specific Binding (κ (KOP)): 72%
- remaining activity at 1 µM (LKB1): 5%
- remaining activity at 1 µM (HASPIN): -11%
- remaining activity at 1 µM (PTK5): -18%
- remaining activity at 1 µM (RSK3): -5%
- remaining activity at 1 µM (IGF-1R, ACTIVATED): 11%
- inhibition at 10 µM (NTS1 (NT1) (h)): -8%
- inhibition at 10 µM (CXCR2 (IL-8B) (h)): -6%
- remaining activity at 1 µM (MNK2): 2%
- % Control (MKK4): 13%
- remaining activity at 1 µM (PIM-1): -11%
- remaining activity at 1 µM (LIMK1): 0%
- remaining activity at 1 µM (CDK3/CYCLINE): 1%
- inhibition at 10 µM (AT1 (h)): 8%
- remaining activity at 1 µM (BMX): -2%
- remaining activity at 1 µM (YES): 7%
- remaining activity at 1 µM (SGK2): -17%
- remaining activity at 1 µM (EPHB3): -2%
- % Inhibition of Control Specific Binding (μ (MOP) (h)): 42%
- % Inhibition of Control Specific Binding (GABA (non-selective)): 5%
